From article PMC5218480 (PLoS ONE, 2017)

Tested on: MV-4-11 cells
Assay: Gene expression microarray analysis (Affymetrix PrimeView) and GSEA
Type: cell-based, human
Set-up: RFU PODN (11730768_x_at) / Fold change /veh PODN (11730768_x_at) / RFU LINC00158 (11744669_a_at) / Fold change /veh LINC00158 (11744669_a_at) / RFU DUSP10 (11751237_a_at) / Fold change /veh DUSP10 (11751237_a_at) / RFU ID3 (11757404_x_at) / Fold change /veh ID3 (11757404_x_at) / RFU PLEKHG5 (11737974_s_at) / Fold change /veh PLEKHG5 (11737974_s_at) / RFU LRRC4B (11730491_at) / Fold change /veh LRRC4B (11730491_at) / RFU GIMAP4 (11747438_a_at) / Fold change /veh GIMAP4 (11747438_a_at) / RFU KRT8 (11758183_x_at) / Fold change /veh KRT8 (11758183_x_at) / RFU CNN1 (11734310_a_at) / Fold change /veh CNN1 (11734310_a_at) / RFU VPS37D (11726825_at) / Fold change /veh VPS37D (11726825_at) / RFU C10orf10 (11716522_x_at) / Fold change /veh C10orf10 (11716522_x_at) / RFU KIR2DL2 /// KIR2DL4 /// KIR2DL5A /// KIR2DL5B /// KIR2DS1 /// KIR2DS2 /// KIR2DS3 /// KIR2DS4 /// KIR3DL3 /// KIR3DL3 /// KIR3DS1 (11738374_at) / Fold change /veh KIR2DL2 /// KIR2DL4 /// KIR2DL5A /// KIR2DL5B /// KIR2DS1 /// KIR2DS2 /// KIR2DS3 /// KIR2DS4 /// KIR3DL3 /// KIR3DL3 /// KIR3DS1 (11738374_at) / RFU C1QL1 (11718748_at) / Fold change /veh C1QL1 (11718748_at) / RFU TMPRSS4 (11747572_a_at) / Fold change /veh TMPRSS4 (11747572_a_at) / RFU HAMP (11756126_x_at) / Fold change /veh HAMP (11756126_x_at) / RFU RNFT2 (11725882_a_at) / Fold change /veh RNFT2 (11725882_a_at) / RFU NR4A2 (11747474_a_at) / Fold change /veh NR4A2 (11747474_a_at) / RFU ABCC12 (11746883_a_at) / Fold change /veh ABCC12 (11746883_a_at) / RFU TMEM136 (11760407_x_at) / Fold change /veh TMEM136 (11760407_x_at) / RFU CLDN22 /// WWC2 (11732394_at) / Fold change /veh CLDN22 /// WWC2 (11732394_at) / RFU HLA-DPB1 (11760878_x_at) / Fold change /veh HLA-DPB1 (11760878_x_at) / RFU SPINT1 (11716480_a_at) / Fold change /veh SPINT1 (11716480_a_at) / RFU GAP43 (11754022_s_at) / Fold change /veh GAP43 (11754022_s_at) / RFU A4GNT (11735810_at) / Fold change /veh A4GNT (11735810_at) / RFU PRB3 (11715151_x_at) / Fold change /veh PRB3 (11715151_x_at) / RFU TUBB4B (11761932_at) / Fold change /veh TUBB4B (11761932_at) / RFU CAPN14 (11732068_a_at) / Fold change /veh CAPN14 (11732068_a_at) / RFU TMCC2 (11721928_a_at) / Fold change /veh TMCC2 (11721928_a_at) / RFU IRGQ (11745062_a_at) / Fold change /veh IRGQ (11745062_a_at) / RFU FAM174B (11720279_a_at) / Fold change /veh FAM174B (11720279_a_at) / RFU TMPRSS4 (11748680_a_at) / Fold change /veh TMPRSS4 (11748680_a_at) / RFU FAM212B (11763350_a_at) / Fold change /veh FAM212B (11763350_a_at) / RFU PLEKHG5 (11743358_a_at) / Fold change /veh PLEKHG5 (11743358_a_at) / RFU ZSCAN30 (11745921_a_at) / Fold change /veh ZSCAN30 (11745921_a_at) / RFU CMKLR1 (11741424_a_at) / Fold change /veh CMKLR1 (11741424_a_at) / RFU LOC101060620 /// MAPK8IP1 (11723275_at) / Fold change /veh LOC101060620 /// MAPK8IP1 (11723275_at) / RFU SPTSSB (11747773_x_at) / Fold change /veh SPTSSB (11747773_x_at) / RFU PRSS12 (11739890_at) / Fold change /veh PRSS12 (11739890_at) / RFU BIN1 (11741810_x_at) / Fold change /veh BIN1 (11741810_x_at) / RFU WNT11 (11732464_a_at) / Fold change /veh WNT11 (11732464_a_at) / RFU C10orf10 (11716521_a_at) / Fold change /veh C10orf10 (11716521_a_at) / RFU C5orf56 (11738089_at) / Fold change /veh C5orf56 (11738089_at) / RFU CYB561 (11721691_x_at) / Fold change /veh CYB561 (11721691_x_at) / RFU ANKRD19P (11752326_a_at) / Fold change /veh ANKRD19P (11752326_a_at) / RFU OR2T12 /// OR2T33 /// OR2T8 (11738714_s_at) / Fold change /veh OR2T12 /// OR2T33 /// OR2T8 (11738714_s_at) / RFU VCAN (11748164_a_at) / Fold change /veh VCAN (11748164_a_at) / RFU JSRP1 (11732532_at) / Fold change /veh JSRP1 (11732532_at) / RFU KRTAP10-11 (11738290_x_at) / Fold change /veh KRTAP10-11 (11738290_x_at) / RFU MYO3A (11730013_a_at) / Fold change /veh MYO3A (11730013_a_at) / RFU EBF3 (11725865_a_at) / Fold change /veh EBF3 (11725865_a_at) / RFU CAMK2N1 (11719241_x_at) / Fold change /veh CAMK2N1 (11719241_x_at) / RFU C5orf56 (11738088_a_at) / Fold change /veh C5orf56 (11738088_a_at) / RFU OLFML3 (11715873_a_at) / Fold change /veh OLFML3 (11715873_a_at) / RFU LOC100653217 /// NTM (11731650_a_at) / Fold change /veh LOC100653217 /// NTM (11731650_a_at) / RFU MAPK11 (11762145_a_at) / Fold change /veh MAPK11 (11762145_a_at) / RFU FIZ1 (11724087_x_at) / Fold change /veh FIZ1 (11724087_x_at) / RFU OASL (11726364_x_at) / Fold change /veh OASL (11726364_x_at) / RFU SOX15 (11748057_x_at) / Fold change /veh SOX15 (11748057_x_at) / RFU CD79A (11719716_a_at) / Fold change /veh CD79A (11719716_a_at) / RFU HIST1H1D (11736915_at) / Fold change /veh HIST1H1D (11736915_at) / RFU CASKIN2 (11723855_a_at) / Fold change /veh CASKIN2 (11723855_a_at) / RFU LOC730098 (11760151_x_at) / Fold change /veh LOC730098 (11760151_x_at) / RFU OR4N2 (11742367_at) / Fold change /veh OR4N2 (11742367_at) / RFU PRRT2 (11749266_a_at) / Fold change /veh PRRT2 (11749266_a_at) / RFU SNX32 (11753110_a_at) / Fold change /veh SNX32 (11753110_a_at) / RFU CDHR5 (11726645_a_at) / Fold change /veh CDHR5 (11726645_a_at) / RFU RCAN1 (11760418_a_at) / Fold change /veh RCAN1 (11760418_a_at) / RFU FAM167A (11723789_a_at) / Fold change /veh FAM167A (11723789_a_at) / RFU FAM26E (11764081_at) / Fold change /veh FAM26E (11764081_at) / RFU ISYNA1 (11749810_s_at) / Fold change /veh ISYNA1 (11749810_s_at) / RFU ACY1 (11761880_at) / Fold change /veh ACY1 (11761880_at) / RFU 11764098_at / Fold change /veh 11764098_at / RFU SAMD14 (11745864_x_at) / Fold change /veh SAMD14 (11745864_x_at) / RFU NPB (11741838_a_at) / Fold change /veh NPB (11741838_a_at) / RFU TMPRSS6 (11731388_a_at) / Fold change /veh TMPRSS6 (11731388_a_at) / RFU KRTAP10-2 (11738614_at) / Fold change /veh KRTAP10-2 (11738614_at) / RFU ARHGAP8 /// PRR5-ARHGAP8 (11727945_x_at) / Fold change /veh ARHGAP8 /// PRR5-ARHGAP8 (11727945_x_at) / RFU KRTAP5-7 /// NADSYN1 (11734609_at) / Fold change /veh KRTAP5-7 /// NADSYN1 (11734609_at) / RFU RASL12 (11751679_a_at) / Fold change /veh RASL12 (11751679_a_at) / RFU CDKN2B (11736163_a_at) / Fold change /veh CDKN2B (11736163_a_at) / RFU PRF1 (11729649_at) / Fold change /veh PRF1 (11729649_at) / RFU, ZNF638 /// ZNF638-IT1 / Fold change vs veh, ZNF638 /// ZNF638-IT1 / RFU, PANK3 / Fold change vs veh, PANK3 / RFU, SH3YL1 / Fold change vs veh, SH3YL1 / RFU, ZEB2 / Fold change vs veh, ZEB2 / RFU, NRIP1 / Fold change vs veh, NRIP1 / RFU, PTTG1IP / Fold change vs veh, PTTG1IP / RFU, CAPN2 / Fold change vs veh, CAPN2 / RFU, MED14 / Fold change vs veh, MED14 / RFU, SNORA58 / Fold change vs veh, SNORA58 / RFU, C1orf63 / Fold change vs veh, C1orf63 / RFU, LRRFIP1 / Fold change vs veh, LRRFIP1 / RFU, NDUFAF7 / Fold change vs veh, NDUFAF7 / RFU, SLC12A2 / Fold change vs veh, SLC12A2 / RFU, IBTK / Fold change vs veh, IBTK / RFU, ESF1 / Fold change vs veh, ESF1 / Fold change vs veh, TMEM50B / RFU, TAOK1 / Fold change vs veh, TAOK1 / RFU, ACBD3 / Fold change vs veh, ACBD3 / RFU, TMA16 / Fold change vs veh, TMA16 / RFU, RWDD3 / Fold change vs veh, RWDD3 / RFU, BCAT1 / Fold change vs veh, BCAT1 / RFU, EDEM3 / Fold change vs veh, EDEM3 / RFU, TMEM33 / Fold change vs veh, TMEM33 / RFU, WDR75 / Fold change vs veh, WDR75 / RFU, AHCTF1 / Fold change vs veh, AHCTF1 / RFU, TFRC / Fold change vs veh, TFRC / RFU, ZDHHC17 / Fold change vs veh, ZDHHC17 / RFU, NOM1 / Fold change vs veh, NOM1 / RFU, ARL8B / Fold change vs veh, ARL8B / RFU, ZBTB11 / Fold change vs veh, ZBTB11 / RFU, TAMM41 / Fold change vs veh, TAMM41 / RFU, KIAA1704 /// LOC100996395 / Fold change vs veh, KIAA1704 /// LOC100996395 / RFU, ING1 / Fold change vs veh, ING1 / RFU, TRMT61B / Fold change vs veh, TRMT61B / RFU, FUBP3 / Fold change vs veh, FUBP3 / RFU, TP53 / Fold change vs veh, TP53 / RFU, TNKS2 / Fold change vs veh, TNKS2 / RFU, ZFP14 / Fold change vs veh, ZFP14 / RFU, ACTR2 / Fold change vs veh, ACTR2 / RFU, PPP3R1 / Fold change vs veh, PPP3R1 / RFU, PIK3R1 / Fold change vs veh, PIK3R1 / RFU, HNRNPA1 / Fold change vs veh, HNRNPA1 / RFU, RNF170 / Fold change vs veh, RNF170 / RFU, ZNF28 / Fold change vs veh, ZNF28 / RFU, RNGTT / Fold change vs veh, RNGTT / RFU, OGT / Fold change vs veh, OGT / RFU, BRD1 / Fold change vs veh, BRD1 / RFU, MARS / Fold change vs veh, MARS / RFU, ZNF655 / Fold change vs veh, ZNF655 / RFU, FAHD1 / Fold change vs veh, FAHD1 / RFU, BDP1 / Fold change vs veh, BDP1 / RFU, LRRCC1 / Fold change vs veh, LRRCC1 / RFU, ARID1A / Fold change vs veh, ARID1A / RFU, ZNF146 / Fold change vs veh, ZNF146 / RFU, ZNF330 / Fold change vs veh, ZNF330 / RFU, GPN3 / Fold change vs veh, GPN3 / RFU, C9orf123 / Fold change vs veh, C9orf123 / RFU, N4BP2L2 / Fold change vs veh, N4BP2L2 / RFU, ARFIP1 / Fold change vs veh, ARFIP1 / RFU, FAM179B / Fold change vs veh, FAM179B / RFU, BCL10 / Fold change vs veh, BCL10 / RFU, UHRF1BP1L / Fold change vs veh, UHRF1BP1L / RFU, BET1 / Fold change vs veh, BET1 / RFU, CNOT2 / Fold change vs veh, CNOT2 / RFU, ZNF268 / Fold change vs veh, ZNF268 / Fold change vs veh, ZNF507 / RFU, DGCR2 / Fold change vs veh, DGCR2 / RFU, WDSUB1 / Fold change vs veh, WDSUB1 / Fold change vs veh, HSP90B1 /// MIR3652 / RFU, ADSS / Fold change vs veh, ADSS / RFU, GK / Fold change vs veh, GK / RFU, ZNF148 / Fold change vs veh, ZNF148 / RFU, TAF9 / Fold change vs veh, TAF9 / RFU, SLC1A5 / Fold change vs veh, SLC1A5 / RFU, SLMO2 / Fold change vs veh, SLMO2 / RFU, ABCC4 / Fold change vs veh, ABCC4 / RFU, LOC101060439 /// RAP1B / Fold change vs veh, LOC101060439 /// RAP1B / RFU, RFX7 / Fold change vs veh, RFX7 / RFU, GTPBP10 / Fold change vs veh, GTPBP10 / RFU, CNEP1R1 / Fold change vs veh, CNEP1R1 / RFU, BIVM-ERCC5 /// ERCC5 / Fold change vs veh, BIVM-ERCC5 /// ERCC5 / RFU, ILF3 / Fold change vs veh, ILF3 / RFU 11762660_at / Fold change /veh 11762660_at / RFU VCAN (11757783_s_at) / Fold change /veh VCAN (11757783_s_at) / RFU DDX43 (11728927_at) / Fold change /veh DDX43 (11728927_at) / RFU KRT8 (11758188_x_at) / Fold change /veh KRT8 (11758188_x_at) / RFU NKD1 (11759106_at) / Fold change /veh NKD1 (11759106_at) / RFU SRD5A1 (11742802_a_at) / Fold change /veh SRD5A1 (11742802_a_at) / RFU TPSAB1 /// TPSB2 (11721975_s_at) / Fold change /veh TPSAB1 /// TPSB2 (11721975_s_at) / RFU GSTM3 (11746129_a_at) / Fold change /veh GSTM3 (11746129_a_at) / RFU IL23R (11737362_x_at) / Fold change /veh IL23R (11737362_x_at) / RFU TMEM51 (11727254_a_at) / Fold change /veh TMEM51 (11727254_a_at) / RFU PIWIL2 (11732686_x_at) / Fold change /veh PIWIL2 (11732686_x_at) / RFU ORM1 (11744905_x_at) / Fold change /veh ORM1 (11744905_x_at) / RFU CCDC152 (11743942_at) / Fold change /veh CCDC152 (11743942_at) / RFU ECM1 (11717891_a_at) / Fold change /veh ECM1 (11717891_a_at) / RFU IL23R (11748794_a_at) / Fold change /veh IL23R (11748794_a_at) / RFU TNFAIP8L3 (11732012_x_at) / Fold change /veh TNFAIP8L3 (11732012_x_at) / RFU MBOAT4 (11741988_at) / Fold change /veh MBOAT4 (11741988_at) / RFU 11764193_at / Fold change /veh 11764193_at / RFU TMEM53 (11763286_at) / Fold change /veh TMEM53 (11763286_at) / RFU MAGEB2 (11727129_at) / Fold change /veh MAGEB2 (11727129_at) / RFU TMEM200A (11744735_a_at) / Fold change /veh TMEM200A (11744735_a_at) / RFU CCDC152 (11751479_a_at) / Fold change /veh CCDC152 (11751479_a_at) / RFU FAM211A (11726209_a_at) / Fold change /veh FAM211A (11726209_a_at) / RFU RGS16 (11746705_a_at) / Fold change /veh RGS16 (11746705_a_at) / RFU VCAN (11755009_s_at) / Fold change /veh VCAN (11755009_s_at) / RFU RHOB (11743442_s_at) / Fold change /veh RHOB (11743442_s_at) / RFU RGS16 (11720943_a_at) / Fold change /veh RGS16 (11720943_a_at) / RFU RGS16 (11720944_at) / Fold change /veh RGS16 (11720944_at) / RFU, VPS4B / Fold change vs veh, VPS4B / RFU, CREB1 / Fold change vs veh, CREB1 / RFU, DNAJC13 / Fold change vs veh, DNAJC13 / RFU, GNAQ / Fold change vs veh, GNAQ / RFU, CDK5R1 / Fold change vs veh, CDK5R1 / RFU, ZRANB3 / Fold change vs veh, ZRANB3 / RFU, CUL4A / Fold change vs veh, CUL4A / RFU, CCNY / Fold change vs veh, CCNY / RFU, UFL1 / Fold change vs veh, UFL1 / RFU, COG3 / Fold change vs veh, COG3 / RFU, DIAPH2 / Fold change vs veh, DIAPH2 / RFU, SKA2 / Fold change vs veh, SKA2 / RFU, AFF3 / Fold change vs veh, AFF3 / RFU, LMF1 / Fold change vs veh, LMF1 / RFU, IPO11 / Fold change vs veh, IPO11 / RFU, DFFB / Fold change vs veh, DFFB / RFU, FOXP1 / Fold change vs veh, FOXP1 / RFU, CARD8 / Fold change vs veh, CARD8 / RFU, STRN3 / Fold change vs veh, STRN3 / RFU, ADK / Fold change vs veh, ADK / RFU, RASSF2 / Fold change vs veh, RASSF2 / RFU, WIPF1 / Fold change vs veh, WIPF1 / RFU, LARP1B / Fold change vs veh, LARP1B / RFU, RASA1 / Fold change vs veh, RASA1 / RFU, RB1 / Fold change vs veh, RB1 / RFU, PPFIA1 / Fold change vs veh, PPFIA1 / RFU, MAT2A / Fold change vs veh, MAT2A / RFU, CCT5 / Fold change vs veh, CCT5 / RFU, WDR92 / Fold change vs veh, WDR92 / RFU, CUX1 / Fold change vs veh, CUX1 / RFU, TTC7A / Fold change vs veh, TTC7A / RFU, TMEM135 / Fold change vs veh, TMEM135 / RFU, DEPTOR / Fold change vs veh, DEPTOR / RFU, CPM / Fold change vs veh, CPM / RFU, DNAJB6 / Fold change vs veh, DNAJB6 / RFU, CACNA2D3 / Fold change vs veh, CACNA2D3 / RFU, DTX4 / Fold change vs veh, DTX4 / RFU, TFCP2 / Fold change vs veh, TFCP2 / RFU, GMCL1 /// GMCL1P1 / Fold change vs veh, GMCL1 /// GMCL1P1 / RFU, AEBP2 / Fold change vs veh, AEBP2 / RFU, SNHG1 /// SNORD22 /// SNORD25 /// SNORD26 /// SNORD27 /// SNORD28 /// SNORD29 /// SNORD31 / Fold change vs veh, SNHG1 /// SNORD22 /// SNORD25 /// SNORD26 /// SNORD27 /// SNORD28 /// SNORD29 /// SNORD31 / Fold change (Aza/veh), C12orf56 (ProbeSet 11735607_a_at) / Fold change (ACY-1035/veh), C12orf56 (ProbeSet 11735607_a_at) / Fold change (Aza/veh), FGFR1OP (ProbeSet 11751329_s_at) / Fold change (ACY-1035/veh), FGFR1OP (ProbeSet 11751329_s_at) / Fold change (Aza/veh), VPS36 (ProbeSet 11739960_a_at) / Fold change (ACY-1035/veh), VPS36 (ProbeSet 11739960_a_at) / RFU SYPL1 (11715823_x_at) / Fold change /veh SYPL1 (11715823_x_at) / RFU IGFBP7 (11715501_s_at) / Fold change /veh IGFBP7 (11715501_s_at) / RFU REEP3 (11722064_at) / Fold change /veh REEP3 (11722064_at) / RFU IGLL1 (11728026_x_at) / Fold change /veh IGLL1 (11728026_x_at): dose or concentration left out as unconfirmed
Settings: ProbeSet 11718701_a_at; LIST B

## Nc1ccc(-c2cccs2)cc1NC(=O)c1ccc2c(c1)cc(C1CC1)n2CCN1CCOCC1 [ACY-1035]
  RFU, ARFIP1: 56.28 RFU
